# How the values were obtained:
# [1] = system: bleomycin-induced pulmonary fibrosis; assay: Fibrosis of lung tissue induced by bleomycin (Masson's trichrome); type: in vivo, C57BL/6J mice; details: 12 days after bleomycin 40 μg/head
# Description: Five-week-old male C57BL/6J mice (weight: 18.2 to 20.5 g) (KOATECH, Korea) were used as experimental animals, and each test group was composed of five experimental animals, as is summarized in Table 1 below.
# Pulmonary fibrosis was induced by directly injecting a bleomycin solution into the lungs via the trachea according to the intratracheal instillation (IT) method of Kremer, Laxer and Berkman et al. Specifically, C57BL/6J mice were anesthetized through inhalation with 70% N2O and 30% O2 gas and 1.5% isoflurane, and the skin of the anterior neck thereof was excised and the organs under the muscle thereof were exposed and then carefully excised using ophthalmic surgical scissors. 50 μL of a bleomycin solution in distilled water was directly injected into the lungs all at once via the excised organ using a 1 mL syringe fitted with a 19-gauge injection needle having a blunt tip. […]
# Eupatilin was used by being dissolved in a DPBS buffer (containing 1% DMSO), and the amount of eupatilin that was administered was 1 mL/kg, and the dose for each individual was calculated based on the recent body weight thereof 12 days after the administration of bleomycin, eupatilin was forcibly nasally administered once a day (5 times a week) for 1 week using a micropipette. […]
# [2] = Observation of toxic symptoms and death after administration; type: in vivo, C57BL/6J mice; details: 2 to 3 days after administration, nasal, bleomycin-treated mice
# Protocol: Eupatilin was used by being dissolved in a DPBS buffer (containing 1% DMSO), and the amount of eupatilin that was administered was 1 mL/kg, and the dose for each individual was calculated based on the recent body weight thereof 12 days after the administration of bleomycin, eupatilin was forcibly nasally administered once a day (5 times a week) for 1 week using a micropipette.
# ONGHEPA1 cells = assay: TGF-β-induced fibrosis of ONGHEPA1 cells (microscope); type: cell-based, mouse; details: for inhibition of the progress of fibrosis (differentiation into myofibroblasts): TGF-β 5 ng/mL plus 50 μM compound, 24 hr
# Description: The liver tissue was separated from C57BL/6 mice and a single-cell suspension thereof was made, and immortalized cells were obtained through continuous culture and were confirmed to be mesenchymal stem cells (MSC) of HSC via RT-PCR (Reverse Transcription Polymerase Chain Reaction) using MC (Immunohistochemistry) and FACS (Fluorescence-Activated Cell Sorting). This cell line was called “ONGHEPA1”, and was deposited with the Korean Collection for Type Cultures (KCTC) of the Korea Research Institute of Bioscience and Biotechnology and assigned accession number KCTC13086BP.
# Using such properties of HSC, the fibrotic characteristics of ONGHEPA1 were measured. To induce fibrosis, TGF-β (transforming growth factor beta) was added, and the morphologies of the cells were observed after 6 hr, 12 hr, 24 hr, and 48 hr. Consequently, fibrosis was confirmed to progress considerably after 24 hr and further progress after 48 hr (A of FIG. 6).
# While ONGHEPA1 cells were incubated, they were treated with TGF-β to induce fibrosis, and 50 μM of eupatilin was added to the culture medium.
# In order to more clearly evaluate the effect of eupatilin as above, changes were measured when ONGHEPA1 cells were first treated with eupatilin, washed to remove eupatilin and then treated with TGF-β to induce fibrosis. […] This means that eupatilin is directly associated with the course of fibrosis to thus inhibit the progress of fibrosis.
# On the contrary, changes were measured when ONGHEPA1 cells were first treated with TGF-β to induce fibrosis, washed to remove TGF-β and then treated with eupatilin. […] Even when fibrosis was already progressed, eupatilin was able to restore the cells to their original normal condition.
# In order to more clearly evaluate whether eupatilin was able to restore the cells that already undergone fibrosis to normal cells, changes were measured when ONGHEPA1 cells were treated with TGF-β for 24 hr to induce complete fibrosis and then treated with eupatilin. […] This means that fibrosis that has progressed considerably can be effectively treated using eupatilin.
# The effects of various chromone derivatives other than eupatilin on fibrosis were measured in the same manner as in Example 3-3. While ONGHEPA1 cells were incubated, fibrosis was induced by TGF-β, and a chromone derivative was added at a concentration of 50 μM to the culture medium.
structure (smiles),measurement,setting,value
"COc1ccc(-c2cc(=O)c3c(O)c(OC)c(O)cc3o2)cc1OC [eupatilin, 2-(3,4-dimethoxyphenyl)-5,7-dihydroxy-6-methoxy-chromone]",inhibition of pulmonary fibrosis,[1]; 20 μg eupatilin nasally once a day for 1 week,inhibited
same,inhibition of pulmonary fibrosis,[1]; 40 μg eupatilin nasally once a day for 1 week,more effectively inhibited
same,toxic symptoms and occurrence of death,[2],no particularly abnormal symptoms were observed
same,inhibition of the progress of fibrosis (differentiation into myofibroblasts),ONGHEPA1 cells,fibrosis were not observed
same,inhibition of the progress of fibrosis (differentiation into myofibroblasts),ONGHEPA1 cells; listed as Chemical Formula 2,superior fibrosis-inhibiting effects
same,restoration of cells after TGF-β pretreatment,"ONGHEPA1 cells; TGF-β 1 to 12 hr, washed, then eupatilin 50 μM 24 hr",normal cells such as a control group were maintained
same,restoration of completely fibrotic cells,"ONGHEPA1 cells; TGF-β 24 hr, washed, then eupatilin 50 μM and TGF-β 24 hr",restore the cells in which fibrosis has been completely induced by TGF-β to their normal condition
same,inhibition of the progress of fibrosis after pretreatment,"ONGHEPA1 cells; eupatilin 2 to 6 hr, washed, then TGF-β 24 hr",the progress of fibrosis was not inhibited
same,influence on normal HSC,"ONGHEPA1 cells; eupatilin pretreatment, washed, then TGF-β",no influence on normal HSC
